Here are results for 22 molecules from patent US10793542B2, “Hetroarylamine compounds for modulating the hedgehog pathway and preparing method and uses thereof” (DEVELOPMENT CENTER FOR BIOTECHNOLOGY, priority 2016, dated 2020).

pIC50: −log10 of the molar value.

Format in all cases: cell-based
The target of one test is T1, Smo wild type (Homo sapiens, UniProt Q99835).
T1 construct: expressed in transfected cells; host or cells: C3H10T1/2 cells (ATCC CCL-226), transient transfection with pLPCX-SMO
Description: Reporter assay of C3H10T1/2-Gli-Luc cells transfected with wild-type Smo, without SAG. The following applies: C3H10T1/2 cells transfected with pLPCX-SMO, no SAG, 48 hr; read-out: Inhibition of C3H10T1/2-Gli-Luc-Smo-WT [IC50. The procedure, abridged: (§1)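 C3H10T1/2-Gli-Luc cells transiently transfected with wild-type or D473H SMO, replated in 0.5% FBS RPMI and incubated with compounds 48 h at 37 °C without SAG. Dual-luciferase, firefly normalized to Renilla; scaled to DMSO (100%) and 10 μM ALLO-2 (0%); IC50 by nonlinear regression.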

Test [1] deals with hedgehog pathway (pGL3-7xGli-Luciferase reporter in C3H10T1/2 cells). Briefly: Transient transfection of C3H10T1/2 and Gli-Luc reporter assay with SAG stimulation. The following applies: Mus musculus, C3H 10T1/2, SAG 20 nM, 48 hr, read-out: Inhibition of Gli-Luc expression [IC50. The procedure, abridged: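 C3H10T1/2 cells were transiently transfected with a 7xGli-firefly luciferase reporter and a TK-Renilla control, then treated with serially diluted compounds plus 20 nM SAG in 0.5% FBS for 48 h at 37 °C. Firefly signal was normalized to Renilla and scaled between DMSO with SAG (100%) and without SAG (0%). IC50 was obtained by nonlinear regression.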
In general terms: A reporter such as luciferase makes a cellular process visible.

For the next test, the target named is T2, Smo D473H mutant (Homo sapiens, UniProt Q99835, D473H).
T2 construct: expressed in transfected cells; host or cells: C3H10T1/2 cells (ATCC CCL-226), transient transfection with pLPCX-SMO-D473H
Briefly: Reporter assay of C3H10T1/2-Gli-Luc cells transfected with Smo D473H mutant, without SAG. Conditions: C3H10T1/2 cells transfected with pLPCX-SMO-D473H, no SAG, 48 hr; read-out: Inhibition of C3H10T1/2-Gli-Luc-Smo-D473H [IC50. The method, boiled down:
as §1

T2 sequence (Q99835 28-787 D473H): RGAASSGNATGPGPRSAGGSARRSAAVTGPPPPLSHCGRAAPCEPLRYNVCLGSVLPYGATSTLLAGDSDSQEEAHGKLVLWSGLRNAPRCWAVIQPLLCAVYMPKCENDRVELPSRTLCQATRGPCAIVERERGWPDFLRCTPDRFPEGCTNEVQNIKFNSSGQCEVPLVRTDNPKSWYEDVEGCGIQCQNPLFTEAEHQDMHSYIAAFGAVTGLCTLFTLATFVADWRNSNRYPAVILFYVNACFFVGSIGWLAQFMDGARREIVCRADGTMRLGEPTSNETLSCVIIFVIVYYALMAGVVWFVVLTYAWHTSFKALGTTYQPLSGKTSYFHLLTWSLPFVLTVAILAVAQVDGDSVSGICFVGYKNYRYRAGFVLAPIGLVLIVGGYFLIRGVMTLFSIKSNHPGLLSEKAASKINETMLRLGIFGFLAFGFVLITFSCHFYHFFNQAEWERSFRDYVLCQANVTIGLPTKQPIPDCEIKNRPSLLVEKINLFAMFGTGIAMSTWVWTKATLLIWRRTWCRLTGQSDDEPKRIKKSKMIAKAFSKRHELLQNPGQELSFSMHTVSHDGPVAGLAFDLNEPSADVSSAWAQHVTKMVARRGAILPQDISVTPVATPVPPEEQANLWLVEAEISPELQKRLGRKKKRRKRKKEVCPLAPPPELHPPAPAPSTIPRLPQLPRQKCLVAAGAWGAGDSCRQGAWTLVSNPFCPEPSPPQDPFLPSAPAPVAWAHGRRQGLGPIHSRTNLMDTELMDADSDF
T1 sequence (Q99835 28-787): as the sequence (Q99835 28-787 D473H) above, with H446D counted along it

For `COc1cnc(Nc2ccc(C(=O)Nc3cc(CN4CCNCC4)ccc3C)cc2)nc1-c1ccc(F)cc1` [Compound 79, 4-[4-(4-Fluoro-phenyl)-5-methoxy-pyrimidin-2-ylamino]-N-(2-methyl-5-piperazin-1-ylmethyl-phenyl)-benzamide], the pIC50 on Smo wild type is 6.00 to 7.00; in test [1] it was > 7.00; at Smo D473H mutant, 6.00 to 7.00.
Turning to `CSc1cnc(Nc2ccc(C(=O)Nc3cc(CN4CCN(C)CC4)ccc3C)cc2)nc1-c1ccc(F)cc1` [Compound 36, 4-[4-(4-Fluoro-phenyl)-5-methylsulfanyl-pyrimidin-2-ylamino]-N-[2-methyl-5-(4-methyl-piperazin-1-ylmethyl)-phenyl]-benzamide], the pIC50 on Smo wild type was > 7.00; in test [1], > 7.00; on Smo D473H mutant, 6.00 to 7.00.
In the case of `CSc1cnc(Nc2ccc(C(=O)Nc3cc(CN4CCOCC4)ccc3C)cc2)cc1-c1ccc(F)cc1` [Compound 84, 4-((4-(4-fluorophenyl)-5-(methylthio)pyridin-2-yl)amino)-N-(2-methyl-5-(morpholinomethyl)phenyl)benzamide], the pIC50 at Smo wild type is > 7.00; in test [1], > 7.00; on Smo D473H mutant, 6.00 to 7.00.
Regarding `CSc1cnc(Nc2ccc(C(=O)Nc3cc(CN4CCOCC4)ccc3C)cc2)nc1-c1cnn(C)c1` [Compound 39, N-(2-Methyl-5-morpholin-4-ylmethyl-phenyl)-4-[4-(1-methyl-1H-pyrazol-4-yl)-5-methylsulfanyl-pyrimidin-2-ylamino]-benzamide], the pIC50 (on Smo wild type; in test [1]; on Smo D473H mutant) was 6.00 to 7.00 each time.
On to `CSc1cnc(Nc2ccc(C(=O)Nc3cc(CN4CCOCC4)ccc3F)cc2)nc1-c1ccc(F)cc1` [Compound 71, N-(2-Fluoro-5-morpholin-4-ylmethyl-phenyl)-4-[4-(4-fluoro-phenyl)-5-methylsulfanyl-pyrimidin-2-ylamino]-benzamide], for which the pIC50 (on Smo wild type; in test [1]; on Smo D473H mutant) was > 7.00 each time.
As for `COc1cnc(Nc2ccc(C(=O)Nc3cc(CN4CCOCC4)ccc3C)cc2)nc1-c1ccc(C#N)cc1` [Compound 49, 4-[4-(4-Cyano-phenyl)-5-methoxy-pyrimidin-2-ylamino]-N-(2-methyl-5-morpholin-4-ylmethyl-phenyl)-benzamide], the pIC50 at Smo wild type is 6.00 to 7.00; in test [1], 6.00 to 7.00; at Smo D473H mutant, < 6.00.
As to `CSc1cnc(Nc2ccc(C(=O)Nc3cccc(CN4CCOCC4)c3)cc2)nc1-c1ccc(C(F)(F)F)nc1` [Compound 69, 4-[5-Methylsulfanyl-4-(6-trifluoromethyl-pyridin-3-yl)-pyrimidin-2-ylamino]-N-(3-morpholin-4-ylmethyl-phenyl)-benzamide], the results for the pIC50 (at Smo wild type; in test [1]; on Smo D473H mutant) were > 7.00, > 7.00 and 6.00 to 7.00, respectively.
For `CSc1cnc(Nc2ccc(C(=O)Nc3cc(CN4CCOCC4)ccc3C)cc2F)nc1-c1ccc(OC(F)(F)F)cc1` [Compound 40, 3-Fluoro-N-(2-methyl-5-morpholin-4-ylmethyl-phenyl)-4-[5-methylsulfanyl-4-(4-trifluoromethoxy-phenyl)-pyrimidin-2-ylamino]-benzamide], the pIC50 (at Smo wild type; in test [1]; at Smo D473H mutant) was > 7.00 in each case.
`CSc1cnc(Nc2ccc(C(=O)Nc3cc(CN4CCCCC4)ccc3C)cc2F)nc1-c1ccc(F)cc1` [Compound 42, 3-Fluoro-4-[4-(4-fluoro-phenyl)-5-methylsulfanyl-pyrimidin-2-ylamino]-N-(2-methyl-5-piperidin-1-ylmethyl-phenyl)-benzamide]: the results for the pIC50 (on Smo wild type; in test [1]; at Smo D473H mutant) were > 7.00, > 7.00 and 6.00 to 7.00, respectively.
With `CSc1cnc(Nc2ccc(C(=O)Nc3ccc(C(F)(F)F)c(Cl)c3)cc2)nc1-c1ccc(C#N)cc1` [Compound 4, N-(3-Chloro-4-trifluoromethyl-phenyl)-4-[4-(4-cyano-phenyl)-5-methylsulfanyl-pyrimidin-2-ylamino]-benzamide], the pIC50 (at Smo wild type; in test [1]; at Smo D473H mutant) was 6.00 to 7.00 each time.
For `CSc1cnc(Nc2ccc(C(=O)Nc3cc(CN4CCCCC4)ccc3C)cc2)nc1-c1ccc(C(F)(F)F)cc1` [Compound 28, N-(2-Methyl-5-piperidin-1-ylmethyl-phenyl)-4-[5-methylsulfanyl-4-(4-trifluoromethyl-phenyl)-pyrimidin-2-ylamino]-benzamide], the pIC50 at Smo wild type is 6.00 to 7.00; in test [1], > 7.00; at Smo D473H mutant, 6.00 to 7.00.
Take `CSc1cnc(Nc2ccc(C(=O)Nc3cc(CN4CCOCC4)ccc3C)cc2F)nc1-c1ccc(F)cc1` [Compound 41, 3-Fluoro-4-[4-(4-fluoro-phenyl)-5-methylsulfanyl-pyrimidin-2-ylamino]-N-(2-methyl-5-morpholin-4-ylmethyl-phenyl)-benzamide]: the results for the pIC50 (at Smo wild type; in test [1]; at Smo D473H mutant) were > 7.00, > 7.00 and 6.00 to 7.00, respectively.
In the case of `COc1cccc(OC)c1NC(=O)c1ccc(Nc2ncc(SC)c(-c3ccc(OC(F)(F)F)cc3)n2)cc1` [Compound 22, N-(2,6-Dimethoxy-phenyl)-4-[5-methylsulfanyl-4-(4-trifluoromethoxy-phenyl)-pyrimidin-2-ylamino]-benzamide], the figures for the pIC50 (on Smo wild type; in test [1]; on Smo D473H mutant) were > 7.00, > 7.00 and 6.00 to 7.00, respectively.
As for `CSc1cnc(Nc2ccc(C(=O)Nc3cc(CN4CCOCC4)ccc3F)cc2F)nc1-c1ccc(OC(F)(F)F)cc1` [Compound 55, 3-Fluoro-N-(2-fluoro-5-morpholin-4-ylmethyl-phenyl)-4-[5-methylsulfanyl-4-(4-trifluoromethoxy-phenyl)-pyrimidin-2-ylamino]-benzamide], the pIC50 (on Smo wild type; in test [1]; at Smo D473H mutant) was > 7.00 in each case.
Take `CSc1cnc(Nc2ccc(C(=O)Nc3cc(CN4CCN(C)CC4)ccc3C)cc2)cc1-c1ccc(C(F)(F)F)cc1` [Compound 90, N-(2-methyl-5-((4-methylpiperazin-1-yl)methyl)phenyl)-4-((5-(methylthio)-4-(4-(trifluoromethyl)phenyl)pyridin-2-yl)amino)benzamide]: the pIC50 on Smo wild type was > 7.00; in test [1] it was > 7.00; on Smo D473H mutant, 6.00 to 7.00.
`CSc1cnc(Nc2ccc(C(=O)Nc3cc(CN4CCOCC4)ccc3C)cc2)nc1-c1ccc(F)cc1` [Compound 30, 4-[4-(4-Fluoro-phenyl)-5-methylsulfanyl-pyrimidin-2-ylamino]-N-(2-methyl-5-morpholin-4-ylmethyl-phenyl)-benzamide]: the pIC50 was > 7.00 on Smo wild type, > 7.00 in test [1] and 6.00 to 7.00 at Smo D473H mutant.
For the molecule `CSc1cnc(Nc2ccc(C(=O)Nc3cc(CN4CCCCC4)ccc3C)cc2)nc1-c1ccc(F)cc1` [Compound 48, 4-[4-(4-Fluoro-phenyl)-5-methylsulfanyl-pyrimidin-2-ylamino]-N-(2-methyl-5-piperidin-1-ylmethyl-phenyl)-benzamide], the values for the pIC50 (at Smo wild type; in test [1]; on Smo D473H mutant) were > 7.00, > 7.00 and 6.00 to 7.00, respectively.
Regarding `COc1ccc(CN2CCOCC2)cc1NC(=O)c1ccc(Nc2ncc(SC)c(-c3ccc(F)cc3)n2)cc1` [Compound 59, 4-[4-(4-Fluoro-phenyl)-5-methylsulfanyl-pyrimidin-2-ylamino]-N-(2-methoxy-5-morpholin-4-ylmethyl-phenyl)-benzamide], the pIC50 (at Smo wild type; in test [1]; on Smo D473H mutant) was 6.00 to 7.00 in each case.
For `CSc1cnc(Nc2ccc(C(=O)Nc3cc(CN4CCOCC4)ccc3C)cc2)cc1-c1ccc(OC(F)(F)F)cc1` [Compound 81, N-(2-Methyl-5-morpholin-4-ylmethyl-phenyl)-4-[5-methylsulfanyl-4-(4-trifluoromethoxy-phenyl)-pyridin-2-ylamino)-benzamide], the pIC50 (on Smo wild type; in test [1]; on Smo D473H mutant) was > 7.00 in each case.
Regarding `CSc1cnc(Nc2ccc(C(=O)Nc3ccccc3C)cc2)nc1-c1ccccc1` [Compound 19, 4-(5-Methylsulfanyl-4-phenyl-pyrimidin-2-ylamino)-N-o-tolyl-benzamide], the pIC50 (on Smo wild type; in test [1]; at Smo D473H mutant) was 6.00 to 7.00 each time.
In the case of `COc1cnc(Nc2ccc(C(=O)Nc3cc(CN4CCN(C)CC4)ccc3C)cc2F)nc1-c1ccc(OC(F)(F)F)cc1` [Compound 62, 3-Fluoro-4-[5-methoxy-4-(4-trifluoromethoxy-phenyl)-pyrimidin-2-ylamino]-N-[2-methyl-5-(4-methyl-piperazin-1-ylmethyl)-phenyl]-benzamide], the pIC50 was > 7.00 at Smo wild type, > 7.00 in test [1] and 6.00 to 7.00 on Smo D473H mutant.
On to `CCOc1ccc(-c2nc(Nc3ccc(C(=O)Nc4ccc(Cl)c(C(F)(F)F)c4)cc3)ncc2SC)cn1` [Compound 7, N-(4-Chloro-3-trifluoromethyl-phenyl)-4-[4-(6-ethoxy-pyridin-3-yl)-5-methylsulfanyl-pyrimidin-2-ylamino]-benzamide], for which the pIC50 (at Smo wild type; in test [1]; on Smo D473H mutant) was 6.00 to 7.00 in each case.
